Test results taken from patent US8426406B2, “Glucocorticoid receptor agonist comprising 2,2,4-trimethyl-6-phenyl-1,2-dihydroquinoline derivatives having substituted oxy group” (Santen Pharmaceutical Co., Ltd., priority 2008, dated 2013).

Tested on: IL-6 production induced by lipopolysaccharide (LPS) in human corneal epithelial cells
Test: Evaluation test for GR agonist activity: inhibition of LPS-induced IL-6 production in human corneal epithelial cells (HCE-T)
Type: cell-based
Conditions: Corneal epithelial cell, 10 μL of 100 μM test compound solution per well, 4 hours incubation, efficacy relative to DEX
Procedure: In order to evaluate a GR agonist activity of the present compound, the inhibitory effects on the IL-6 production induced by lipopolysaccharide (LPS) in human corneal epithelial cells. IL-6 levels in the conditioned medium were measured using the HTRF human IL-6 Kit (boehringer-Ingelheim, Cat No. 62IL6PEB), and the procedure was carried out according to the protocol attached to the kit. Hereinafter, the specific method will be described.
LPS solution: After LPS was dissolved in phosphate buffer solution (hereinafter referred to as PBS(−)), the resulting solution was diluted with 10% FBS-DMEM/F12 medium, whereby a 1 μg/mL LPS solution was prepared.
After a test compound was dissolved in dimethylsulfoxide (hereinafter referred to as DMSO), the resulting solution was diluted with 10% FBS-DMEM/F12 medium, whereby a 100 μM test compound solution was prepared. A 100 μM DEX solution was prepared by the same method, and the inhibitory ratio of IL-6 production of DEX was evaluated to use for calculating efficacy (% DEX).
Used cell: SV40-immortalized human corneal epithelial cells (HCE-T) (RIKEN)
1) HCE-T cells were harvested, and seeded at 2.0×10^4 cells/0.1 mL/well in a 96-well plate.
2) After incubation overnight, the medium was removed and a 80 μL of new 10% FBS-DMEM/Ham's F12 medium was added into each well.
3) A 10 μL of test compounds solution was added into each well.
4) A 10 μL of LPS solution was added into each well.
5) As a negative control, a 10 μL of 10% FBS-DMEM/Ham's F12 medium was added into each well instead of a test compound solution and a LPS solution.
6) As a positive control, a 10 μL of 10% FBS-DMEM/Ham's F12 medium containing 1% DMSO was added into each well instead of a test compound solution.
7) After 4 hours incubation, supernatants were collected and IL-6 levels in the supernatants were quantitated using the HTRF human IL-6 Kit.
8) The inhibition ratio of IL-6 production (%) was calculated according to the following equation.
The inhibition ratio of IL-6 production (%) was calculated according to the following equation. The inhibition ratio of IL-6 production(%)=100×[1−(IL-6 level in each group−mean value of IL-6 level in negative control)/(mean value of IL-6 level in positive control−mean value of IL-6 level in negative control)](%)
Furthermore, the inhibition ratio of IL-6 production (efficacy (% DEX)) was also calculated according to the following equation. Efficacy(% DEX)=100×{(mean value of IL-6 inhibition in compound-treated group)/(mean value of IL-6 inhibition in DEX-treated group)}(%) (Result and Discussion)

SMILES | Emax [%]
COc1cc(OC(=O)c2ccccc2C)ccc1-c1ccc2c(c1COC(=O)c1ccc(C)s1)C(C)=CC(C)(C)N2 [Compound 1-143, 6-[2-Methoxy-4-(2-methylbenzoyloxy)phenyl]-5-(5-methylthiophen-2-ylcarbonyloxymethyl)-2,2,4-trimethyl-1,2-dihydroquinoline] | 96
COc1cc(OC(=O)c2ccc(F)cc2)ccc1-c1ccc2c(c1COC(=O)c1ccc(C)s1)C(C)=CC(C)(C)N2 [Compound 1-169, 6-[4-(4-Fluorobenzoyloxy)-2-methoxyphenyl]-5-(5-methylthiophen-2-ylcarbonyloxymethyl)-2,2,4-trimethyl-1,2-dihydroquinoline] | 78
COc1cc(OC(=O)N(C)C)ccc1-c1ccc2c(c1COC(=O)c1ccc(C)s1)C(C)=CC(C)(C)N2 [Compound 6-37, 6-(4-Dimethylaminocarbonyloxy-2-methoxyphenyl)-5-(5-methylthiophen-2-ylcarbonyloxymethyl)-2,2,4-trimethyl-1,2-dihydroquinoline] | 85
COc1cc(OC(=O)c2cccnc2)ccc1-c1ccc2c(c1COC(=O)c1ccc(C)cc1)C(C)=CC(C)(C)N2 [Compound 1-133, 5-(4-Methylbenzoyloxymethyl)-6-[2-methoxy-4-(pyridin-3-ylcarbonyloxy)phenyl]-2,2,4-trimethyl-1,2-dihydroquinoline] | 74
COc1cc(OC(=O)N2CCOCC2)ccc1-c1ccc2c(c1COC(=O)c1ccc(C)s1)C(C)=CC(C)(C)N2 [Compound 6-26, 6-[2-Methoxy-4-(morpholin-4-ylcarbonyloxy)phenyl]-5-(5-methylthiophen-2-ylcarbonyloxymethyl)-2,2,4-trimethyl-1,2-dihydroquinoline] | 84
CCCCS(=O)(=O)Oc1ccc(-c2ccc3c(c2COc2cc(F)ccc2C)C(C)=CC(C)(C)N3)c(OC)c1 [Compound 4-6, 6-(4-Butylsulfonyloxy-2-methoxyphenyl)-5-(5-fluoro-2-methylphenoxymethyl)-2,2,4-trimethyl-1,2-dihydroquinoline] | 82
COc1ccccc1NCc1c(-c2ccc(OC(=O)c3occc3C)cc2OC)ccc2c1C(C)=CC(C)(C)N2 [Compound 1-114, 6-[2-Methoxy-4-(3-methylfuran-2-ylcarbonyloxy)phenyl]-5-(2-methoxyphenylaminomethyl)-2,2,4-trimethyl-1,2-dihydroquinoline] | 87
CCS(=O)(=O)Oc1ccc(-c2ccc3c(c2COc2cc(F)ccc2C)C(C)=CC(C)(C)N3)c(OC)c1 [Compound 4-4, 6-(4-Ethylsulfonyloxy-2-methoxyphenyl)-5-(5-fluoro-2-methylphenoxymethyl)-2,2,4-trimethyl-1,2-dihydroquinoline] | 89
COc1cc(OS(=O)(=O)C2CCCC2)ccc1-c1ccc2c(c1COC(=O)c1ccc(C)s1)C(C)=CC(C)(C)N2 [Compound 4-30, 6-(4-Cyclopentylsulfonyloxy-2-methoxyphenyl)-5-(5-methylthiophen-2-ylcarbonyloxymethyl)-2,2,4-trimethyl-1,2-dihydroquinoline] | 93
COc1cc(OC(=O)c2ccccc2Cl)ccc1-c1ccc2c(c1CNc1cc(F)ccc1C)C(C)=CC(C)(C)N2 [Compound 1-98, 6-[4-(2-Chlorobenzoyloxy)-2-methoxyphenyl]-5-(5-fluoro-2-methylphenylaminomethyl)-2,2,4-trimethyl-1,2-dihydroquinoline] | 78
COc1ccccc1NCc1c(-c2ccc(OC(=O)c3ccccc3)cc2OC)ccc2c1C(C)=CC(C)(C)N2 [Compound 1-92, 6-(4-Benzoyloxy-2-methoxyphenyl)-5-(2-methoxyphenylaminomethyl)-2,2,4-trimethyl-1,2-dihydroquinoline] | 79
COc1cc(OC(=O)c2cccnc2OC)ccc1-c1ccc2c(c1COC(=O)c1ccc(C)s1)C(C)=CC(C)(C)N2 [Compound 1-166, 6-[2-Methoxy-4-(2-methoxypyridin-3-ylcarbonyloxy)phenyl]-5-(5-methylthiophen-2-ylcarbonyloxymethyl)-2,2,4-trimethyl-1,2-dihydroquinoline] | 91
COc1cc(OC(=O)c2ccncc2F)ccc1-c1ccc2c(c1COc1cc(F)ccc1C)C(C)=CC(C)(C)N2 [Compound 1-69, 5-(5-Fluoro-2-methylphenoxymethyl)-6-[4-(3-fluoropyridin-4-ylcarbonyloxy)-2-methoxyphenyl]-2,2,4-trimethyl-1,2-dihydroquinoline] | 72
COc1cc(OC(=O)c2occc2C)ccc1-c1ccc2c(c1CNc1cc(F)ccc1C)C(C)=CC(C)(C)N2 [Compound 1-126, 5-(5-Fluoro-2-methylphenylaminomethyl)-6-[2-methoxy-4-(3-methylfuran-2-ylcarbonyloxy)phenyl]-2,2,4-trimethyl-1,2-dihydroquinoline] | 81
COc1cc(OC(=O)C(C)C)ccc1-c1ccc2c(c1COC(=O)c1ccc(C)s1)C(C)=CC(C)(C)N2 [Compound 1-164, 6-(4-Isopropylcarbonyloxy-2-methoxyphenyl)-5-(5-methylthiophen-2-ylcarbonyloxymethyl)-2,2,4-trimethyl-1,2-dihydroquinoline] | 85
COc1ccccc1NCc1c(-c2ccc(OS(C)(=O)=O)cc2OC)ccc2c1C(C)=CC(C)(C)N2 [Compound 4-20, 6-(2-Methoxy-4-methylsulfonyloxyphenyl)-5-(2-methoxyphenylaminomethyl)-2,2,4-trimethyl-1,2-dihydroquinoline] | 75
COc1cc(OC(=O)Nc2ccc(Cl)cc2)ccc1-c1ccc2c(c1COC(=O)c1ccc(C)s1)C(C)=CC(C)(C)N2 [Compound 6-27, 6-[4-(4-Chlorophenylaminocarbonyloxy)-2-methoxyphenyl]-5-(5-methylthiophen-2-ylcarbonyloxymethyl)-2,2,4-trimethyl-1,2-dihydroquinoline] | 94
COc1ccccc1NCc1c(-c2ccc(OC(=O)c3cccnc3C)cc2OC)ccc2c1C(C)=CC(C)(C)N2 [Compound 1-91, 6-[2-Methoxy-4-(2-methylpyridin-3-ylcarbonyloxy)phenyl]-5-(2-methoxyphenylaminomethyl)-2,2,4-trimethyl-1,2-dihydroquinoline] | 92
COc1cc(OS(=O)(=O)C(C)C)ccc1-c1ccc2c(c1COC(=O)c1ccc(C)s1)C(C)=CC(C)(C)N2 [Compound 4-29, 6-(4-Isopropylsulfonyloxy-2-methoxyphenyl)-5-(5-methylthiophen-2-ylcarbonyloxymethyl)-2,2,4-trimethyl-1,2-dihydroquinoline] | 92
COc1ccccc1NCc1c(-c2ccc(OC(=O)c3ccco3)cc2OC)ccc2c1C(C)=CC(C)(C)N2 [Compound 1-3, 6-[4-(Furan-2-ylcarbonyloxy)-2-methoxyphenyl]-5-(2-methoxyphenylaminomethyl)-2,2,4-trimethyl-1,2-dihydroquinoline] | 76
COc1cc(OC(=O)c2ccccc2SC)ccc1-c1ccc2c(c1COc1cc(F)ccc1C)C(C)=CC(C)(C)N2 [Compound 1-38] | 75
COc1cc(OC(=O)c2ccc(C)nc2)ccc1-c1ccc2c(c1COc1cc(F)ccc1C)C(C)=CC(C)(C)N2 [Compound 1-55, 5-(5-Fluoro-2-methylphenoxymethyl)-6-[2-methoxy-4-(6-methylpyridin-3-ylcarbonyloxy)phenyl]-2,2,4-trimethyl-1,2-dihydroquinoline] | 76
COc1cc(OC(=O)Cc2ccccc2)ccc1-c1ccc2c(c1COc1cc(F)ccc1C)C(C)=CC(C)(C)N2 [Compound 1-15, 5-(5-Fluoro-2-methylphenoxymethyl)-6-(2-methoxy-4-phenylacetoxyphenyl)-2,2,4-trimethyl-1,2-dihydroquinoline] | 77
COc1cc(OC(=O)c2cccnc2C)ccc1-c1ccc2c(c1COC(=O)c1ccc(C)s1)C(C)=CC(C)(C)N2 [Compound 1-153, 6-[2-Methoxy-4-(2-methylpyridin-3-ylcarbonyloxy)phenyl]-5-(5-methylthiophen-2-ylcarbonyloxymethyl)-2,2,4-trimethyl-1,2-dihydroquinoline] | 89
COc1cc(OC(=O)c2ccco2)ccc1-c1ccc2c(c1CNc1cc(F)ccc1C)C(C)=CC(C)(C)N2 [Compound 1-106, 5-(5-Fluoro-2-methylphenylaminomethyl)-6-[4-(furan-2-ylcarbonyloxy)-2-methoxyphenyl]-2,2,4-trimethyl-1,2-dihydroquinoline] | 82
